The values below are quoted from earlier work in US11752185B2, “Powderized cannabis oil” (Hemp Synergistics, priority 2020, dated 2023).

The conditions of this series: clinical studies; EPIDIOLEX context: seizures associated with Lennox-Gastaut syndrome or Dravet syndrome.

As for `C=C(C)[C@@H]1CCC(C)=C[C@H]1c1c(O)cc(CCCCC)cc1O` [CBD, cannabidiol], the therapeutic dose is 10 mg/kg/day.
